Measurements as given in PubChem BioAssay (NCI).
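GI50 is the concentration that inhibits growth by half. TGI denotes the concentration required for complete inhibition of growth.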

Key:
Assay in all cases: NCI anticancer screen, dose series, 384-well format; in the data active = GI50 below about 0.43 µM; inactive = the rest
BT-549 breast = system: BT-549 breast
T-47D breast = system: T-47D breast
SW-620 colon = system: SW-620 colon
CAKI-1 renal = system: CAKI-1 renal
HCT-15 colon = system: HCT-15 colon
786-0 renal = system: 786-0 renal
RXF 393 renal = system: RXF 393 renal
SN12C renal = system: SN12C renal
LOX IMVI melanoma = system: LOX IMVI melanoma
OVCAR-8 ovarian = system: OVCAR-8 ovarian
UO-31 renal = system: UO-31 renal
OVCAR-4 ovarian = system: OVCAR-4 ovarian
RPMI-8226 leukemia = system: RPMI-8226 leukemia
MALME-3M melanoma = system: MALME-3M melanoma
OVCAR-3 ovarian = system: OVCAR-3 ovarian
HCT-116 colon = system: HCT-116 colon
NCI-H226 lung = system: NCI-H226 lung
MOLT-4 leukemia = system: MOLT-4 leukemia
KM12 colon = system: KM12 colon
COLO 205 colon = system: COLO 205 colon
SNB-75 CNS = system: SNB-75 CNS
SK-MEL-28 melanoma = system: SK-MEL-28 melanoma
NCI-H23 lung = system: NCI-H23 lung
SK-MEL-5 melanoma = system: SK-MEL-5 melanoma
EKVX NSCLC = system: EKVX NSCLC
SF-295 CNS = system: SF-295 CNS
UACC-257 melanoma = system: UACC-257 melanoma
SNB-19 CNS = system: SNB-19 CNS
SF-539 CNS = system: SF-539 CNS
SR leukemia = system: SR leukemia
HS 578T breast = system: HS 578T breast
IGROV1 ovarian = system: IGROV1 ovarian
TK-10 renal = system: TK-10 renal
NCI-H460 NSCLC = system: NCI-H460 NSCLC
MDA-MB-468 breast = system: MDA-MB-468 breast
A549 NSCLC = system: A549 NSCLC
HCC-2998 colon = system: HCC-2998 colon
CCRF-CEM leukemia = system: CCRF-CEM leukemia
MDA-MB-435 melanoma = system: MDA-MB-435 melanoma
MCF7 breast = system: MCF7 breast
MDA-MB-231 breast = system: MDA-MB-231 breast
PC-3 prostate = system: PC-3 prostate
UACC-62 melanoma = system: UACC-62 melanoma
SK-MEL-2 melanoma = system: SK-MEL-2 melanoma
DU-145 prostate = system: DU-145 prostate
ACHN renal = system: ACHN renal
HOP-92 NSCLC = system: HOP-92 NSCLC

COCCOc1cnc2ccn([C@H](C)c3nnc4c(F)cc(-c5cnn(C)c5)cn34)c(=O)c2c1
inactive: GI50 (BT-549 breast) > 100 µM | GI50 (T-47D breast) > 100 µM | GI50 (SW-620 colon) > 100 µM | GI50 (CAKI-1 renal) > 56.9 µM | GI50 (HCT-15 colon) > 100 µM | GI50 (786-0 renal) > 100 µM | GI50 (RXF 393 renal) > 100 µM | GI50 (SN12C renal) > 100 µM | GI50 (LOX IMVI melanoma) > 100 µM | GI50 (OVCAR-8 ovarian) > 100 µM | GI50 (UO-31 renal) > 100 µM | GI50 (OVCAR-4 ovarian) 98 µM | GI50 (RPMI-8226 leukemia) > 100 µM | GI50 (MALME-3M melanoma) > 100 µM | GI50 (OVCAR-3 ovarian) > 100 µM | GI50 (HCT-116 colon) > 100 µM | GI50 (NCI-H226 lung) > 100 µM | GI50 (MOLT-4 leukemia) > 94 µM | GI50 (KM12 colon) 24.5 µM | GI50 (COLO 205 colon) > 100 µM | GI50 (SNB-75 CNS) > 100 µM | GI50 (SK-MEL-28 melanoma) > 100 µM | GI50 (NCI-H23 lung) > 100 µM | GI50 (SK-MEL-5 melanoma) > 100 µM | GI50 (EKVX NSCLC) > 100 µM | GI50 (SF-295 CNS) 85.2 µM | GI50 (UACC-257 melanoma) > 100 µM | GI50 (SNB-19 CNS) > 100 µM | GI50 (SF-539 CNS) > 100 µM | GI50 (SR leukemia) 60.2 µM | GI50 (HS 578T breast) > 100 µM | GI50 (IGROV1 ovarian) > 100 µM | GI50 (TK-10 renal) > 100 µM | GI50 (NCI-H460 NSCLC) > 100 µM | GI50 (MDA-MB-468 breast) > 100 µM | GI50 (A549 NSCLC) > 100 µM | GI50 (HCC-2998 colon) > 100 µM | GI50 (CCRF-CEM leukemia) > 100 µM | GI50 (MDA-MB-435 melanoma) > 100 µM | GI50 (MCF7 breast) > 100 µM | GI50 (MDA-MB-231 breast) > 100 µM | GI50 (PC-3 prostate) > 100 µM | GI50 (UACC-62 melanoma) 58.1 µM | GI50 (SK-MEL-2 melanoma) > 100 µM | GI50 (DU-145 prostate) > 100 µM | GI50 (ACHN renal) > 100 µM | GI50 (HOP-92 NSCLC) > 100 µM
> 100 µM: TGI (BT-549 breast) | TGI (T-47D breast) | TGI (SW-620 colon) | TGI (CAKI-1 renal) | TGI (HCT-15 colon) | TGI (786-0 renal) | TGI (RXF 393 renal) | TGI (SN12C renal) | TGI (LOX IMVI melanoma) | TGI (OVCAR-8 ovarian) | TGI (UO-31 renal) | TGI (OVCAR-4 ovarian) | TGI (RPMI-8226 leukemia) | TGI (MALME-3M melanoma) | TGI (OVCAR-3 ovarian) | TGI (HCT-116 colon) | TGI (NCI-H226 lung) | TGI (MOLT-4 leukemia) | TGI (KM12 colon) | TGI (COLO 205 colon) | TGI (SNB-75 CNS) | TGI (SK-MEL-28 melanoma) | TGI (NCI-H23 lung) | TGI (SK-MEL-5 melanoma) | TGI (EKVX NSCLC) | TGI (SF-295 CNS) | TGI (UACC-257 melanoma) | TGI (SNB-19 CNS) | TGI (SF-539 CNS) | TGI (SR leukemia) | TGI (HS 578T breast) | TGI (IGROV1 ovarian) | TGI (TK-10 renal) | TGI (NCI-H460 NSCLC) | TGI (MDA-MB-468 breast) | TGI (A549 NSCLC) | TGI (HCC-2998 colon) | TGI (CCRF-CEM leukemia) | TGI (MDA-MB-435 melanoma) | TGI (MCF7 breast) | TGI (MDA-MB-231 breast) | TGI (PC-3 prostate) | TGI (UACC-62 melanoma) | TGI (SK-MEL-2 melanoma) | TGI (DU-145 prostate) | TGI (ACHN renal) | TGI (HOP-92 NSCLC)
